pEC50, pIC50: −log10 of the molar value.
What was measured:
[1] = molecular target: T1, purified recombinant human GAC (GLS1) (Homo sapiens, UniProt O94925); experiment: GLS1 Enzymatic Activity Assay (dual-coupled enzymatic assay); type: biochemical
T1 sequence (O94925 55-598 isoform O94925-3 limits assumed): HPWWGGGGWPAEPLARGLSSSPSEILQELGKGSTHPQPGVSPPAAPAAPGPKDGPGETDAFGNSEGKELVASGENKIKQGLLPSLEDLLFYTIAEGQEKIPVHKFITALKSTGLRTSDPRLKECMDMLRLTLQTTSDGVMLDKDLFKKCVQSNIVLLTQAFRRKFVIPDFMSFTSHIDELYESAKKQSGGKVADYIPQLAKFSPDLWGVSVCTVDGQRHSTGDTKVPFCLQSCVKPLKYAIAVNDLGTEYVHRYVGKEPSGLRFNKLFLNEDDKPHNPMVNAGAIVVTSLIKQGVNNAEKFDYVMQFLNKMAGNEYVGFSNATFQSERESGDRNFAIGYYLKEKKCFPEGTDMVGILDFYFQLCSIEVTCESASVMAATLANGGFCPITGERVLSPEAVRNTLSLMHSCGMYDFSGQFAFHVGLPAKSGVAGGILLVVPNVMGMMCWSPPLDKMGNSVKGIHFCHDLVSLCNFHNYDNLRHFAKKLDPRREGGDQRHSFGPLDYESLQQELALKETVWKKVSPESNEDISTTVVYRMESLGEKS
Summary of the method: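 In this coupled fluorometric format, phosphate-activated GAC (2 nM, 50 mM phosphate) is pre-exposed to compound for 10 min before 1 mM glutamine addition. Product is tracked as resorufin (530/590 nm) over time or at 20 min, and potency is derived by logistic fitting.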

A549 cells = experiment: Proliferation Assay (A549 cell viability, Cell Titer Fluor); type: cell-based; settings: Homo sapiens, 72 hours
Summary of the method: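 A549 cells seeded at 1000 cells/well, left 24 h, then exposed to compound for 72 h at 37 °C, 5% CO2, final DMSO 0.5% (v/v). Viability read by Cell Titer Fluor fluorescence; EC50 from four-parameter logistic fit.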

| pIC50 [1] | pEC50 (A549 cells) | Structure (SMILES) |
| --- | --- | --- |
| > 7.00 | > 7.00 | Cc1ccc(CNC(=O)c2cn(CCCCc3cc4c(-c5ccc6c(c5)OCO6)c(C5CC5)[nH]c4nn3)nn2)cn1 [Example 146, 1-{4-[5-(2H-1,3-benzodioxol-5-yl)-6-cyclopropyl-7H-pyrrolo[2,3-c]pyridazin-3-yl]butyl}-N-[(6-methylpyridin-3-yl)methyl]-1H-1,2,3-triazole-4-carboxamide] |
| > 7.00 | > 7.00 | Cc1ccc(CNC(=O)c2cn(CCCCc3cc4c(-c5ccc(F)cc5F)c(C5CC5)[nH]c4nn3)nn2)cn1 [Example 147, 1-{4-[6-cyclopropyl-5-(2,4-difluorophenyl)-7H-pyrrolo[2,3-c]pyridazin-3-yl]butyl}-N-[(6-methylpyridin-3-yl)methyl]-1H-1,2,3-triazole-4-carboxamide] |
| > 7.00 | > 7.00 | O=C(NCc1cc(OC(F)(F)F)ccc1F)c1cn(CCCCc2cc3cc(C4CN(C(=O)OCC(F)(F)F)C4)[nH]c3nn2)nn1 [Example 148, 2,2,2-trifluoroethyl 3-(3-{4-[4-({[2-fluoro-5-(trifluoromethoxy)phenyl]methyl}carbamoyl)-1H-1,2,3-triazol-1-yl]butyl}-7H-pyrrolo[2,3-c]pyridazin-6-yl)azetidine-1-carboxylate] |
| > 7.00 | 5.30 to 6.30 | O=C(NCc1ccccn1)c1cn(CCCCc2cc3cc(-c4cccc(OC(F)(F)F)c4)[nH]c3nn2)nn1 [Example 149, N-(pyridin-2-ylmethyl)-1-(4-{6-[3-(trifluoromethoxy)phenyl]-7H-pyrrolo[2,3-c]pyridazin-3-yl}butyl)-1H-1,2,3-triazole-4-carboxamide] |
| > 7.00 | > 7.00 | CC(C)(C)OC(=O)N1CCC(c2cc3cc(CCCCn4cc(C(=O)NCc5cc(OC(F)(F)F)ccc5F)nn4)nnc3[nH]2)CC1 [Example 150, tert-butyl 4-(3-{4-[4-({[2-fluoro-5-(trifluoromethoxy)phenyl]methyl}carbamoyl)-1H-1,2,3-triazol-1-yl]butyl}-7H-pyrrolo[2,3-c]pyridazin-6-yl)piperidine-1-carboxylate] |
| > 7.00 | 6.30 to 7.00 | O=C(NCc1ccccn1)c1cn(CCCCc2cc3c(-c4ccc(F)cc4F)c(C4CC4)[nH]c3nn2)nn1 [Example 151] |
| > 7.00 | 5.30 to 6.30 | CC(=O)Nc1cccc(-c2c(C3CC3)[nH]c3nnc(CCCCn4cc(C(=O)NCc5ccc(C(C)(C)O)nc5)nn4)cc23)c1 [Example 152, 1-{4-[6-cyclopropyl-5-(3-acetamidophenyl)-7H-pyrrolo[2,3-c]pyridazin-3-yl]butyl}-N-{[6-(2-hydroxypropan-2-yl)pyridin-3-yl]methyl}-1H-1,2,3-triazole-4-carboxamide] |
| > 7.00 | 5.30 to 6.30 | CC(=O)Nc1cccc(-c2c(C3CC3)[nH]c3nnc(CCCCn4cc(C(=O)NCc5ccccn5)nn4)cc23)c1 [Example 153] |
| > 7.00 | 5.30 to 6.30 | CC(=O)Nc1cccc(-c2c(C3CC3)[nH]c3nnc(CCCCn4cc(C(=O)NCc5ccc(C)nc5)nn4)cc23)c1 [Example 154, 1-{4-[6-cyclopropyl-5-(3-acetamidophenyl)-7H-pyrrolo[2,3-c]pyridazin-3-yl]butyl}-N-[(6-methylpyridin-3-yl)methyl]-1H-1,2,3-triazole-4-carboxamide] |
| 6.30 to 7.00 | 5.30 to 6.30 | O=C(NCc1cc(OC(F)(F)F)ccc1F)c1cn(CCCCc2cc3cc(C4CCNCC4)[nH]c3nn2)nn1 [Example 155, N-{[2-fluoro-5-(trifluoromethoxy)phenyl]methyl)-1-{4-[6-(piperidin-4-yl)-7H-pyrrolo[2,3-c]pyridazin-3-yl]butyl)-1H-1,2,3-triazole-4-carboxamide] |
| > 7.00 | 6.30 to 7.00 | CC(=O)N1CCC(c2cc3cc(CCCCn4cc(C(=O)NCc5cc(OC(F)(F)F)ccc5F)nn4)nnc3[nH]2)CC1 [Example 156, 1-{4-[6-(1-acetylpiperidin-4-yl)-7H-pyrrolo[2,3-c]pyridazin-3-yl]butyl}-N-{[2-fluoro-5-(trifluoromethoxy)phenyl]methyl}-1H-1,2,3-triazole-4-carboxamide] |
| > 7.00 | 6.30 to 7.00 | O=C(NCc1cc(OC(F)(F)F)ccc1F)c1cn(CCCCc2cc3cc(C4CCN(C(=O)CC(F)(F)F)CC4)[nH]c3nn2)nn1 [Example 157, N-{[2-fluoro-5-(trifluoromethoxy)phenyl]methyl)-1-(4-{6-[1-(3,3,3-trifluoropropanoyl)piperidin-4-yl]-7H-pyrrolo[2,3-c]pyridazin-3-yl}butyl)-1H-1,2,3-triazole-4-carboxamide] |
| > 7.00 | 5.30 to 6.30 | CNC(=O)c1cccc(-c2c(C3CC3)[nH]c3nnc(CCCCn4cc(C(=O)NCc5ccc(C)nc5)nn4)cc23)c1 [Example 158, 1-(4-{6-cyclopropyl-5-[3-(methylcarbamoyl)phenyl]-7H-pyrrolo[2,3-c]pyridazin-3-yl}butyl)-N-[(6-methylpyridin-3-yl)methyl]-1H-1,2,3-triazole-4-carboxamide] |
| > 7.00 | 5.30 to 6.30 | Cc1ccc(CNC(=O)c2cn(CCCCc3cc4c(-c5cccc(CNS(C)(=O)=O)c5)c(C5CC5)[nH]c4nn3)nn2)cn1 [Example 159, 1-(4-{6-cyclopropyl-5-[3-(methanesulfonamidomethyl)phenyl]-7H-pyrrolo[2,3-c]pyridazin-3-yl}butyl)-N-[(6-methylpyridin-3-yl)methyl]-1H-1,2,3-triazole-4-carboxamide] |
| > 7.00 | 6.30 to 7.00 | Cc1ccc(CNC(=O)c2cn(CCCCc3cc4c(-c5cccc(C(C)(C)O)c5)c(C5CC5)[nH]c4nn3)nn2)cn1 [Example 160, 1-(4-{6-cyclopropyl-5-[3-(2-hydroxypropan-2-yl)phenyl]-7H-pyrrolo[2,3-c]pyridazin-3-yl}butyl)-N-[(6-mcthylpyridin-3-yl)methyl]-1H-1,2,3-triazole-4-carboxamide] |
| > 7.00 | 6.30 to 7.00 | CC(C)(O)c1ccc(CNC(=O)c2cn(CCCCc3cc4c(-c5ccc(F)cc5F)c(C5CC5)[nH]c4nn3)nn2)cn1 [Example 161, 1-{4-[6-cyclopropyl-5-(2,4-difluorophenyl)-7H-pyrrolo[2,3-c]pyridazin-3-yl]butyl}-N-{[6-(2-hydroxypropan-2-yl)pyridin-3-yl]methyl}-1H-1,2,3-triazole-4-carboxamide] |
| > 7.00 | 6.30 to 7.00 | CC(C)(O)c1ccc(CNC(=O)c2cn(CCCCc3cc4c(-c5ccc(C(F)(F)F)cc5)c(C5CC5)[nH]c4nn3)nn2)cn1 [Example 162, 1-(4-{6-cyclopropyl-5-[4-(trifluoromethyl)phenyl]-7H-pyrrolo[2,3-c]pyridazin-3-yl}butyl)-N-{[6-(2-hydroxypropan-2-yl)pyridin-3-yl]methyl}-1H-1,2,3-triazole-4-carboxamide] |
| > 7.00 | 6.30 to 7.00 | Cc1ccc(CNC(=O)c2cn(CCCCc3cc4c(-c5ccc(C(F)(F)F)cc5)c(C5CC5)[nH]c4nn3)nn2)cn1 [Example 163, 1-(4-{6-cyclopropyl-5-[4-(trifluoromethyl)phenyl]-7H-pyrrolo[2,3-c]pyridazin-3-yl}butyl)-N-[(6-methylpyridin-3-yl)methyl]-1H-1,2,3-triazole-4-carboxamide] |
| > 7.00 | 6.30 to 7.00 | CC(C)(O)c1ccc(CNC(=O)c2cn(CCCCc3cc4c(-c5ccc(OC(F)(F)F)cc5)c(C5CC5)[nH]c4nn3)nn2)cn1 [Example 164, 1-(4-{6-cyclopropyl-5-[4-(trifluoromethoxy)phenyl]-7H-pyrrolo[2,3-c]pyridazin-3-yl}butyl)-N-{[6-(2-hydroxypropan-2-yl)pyridin-3-yl]methyl}-1H-1,2,3-triazole-4-carboxamide] |
| > 7.00 | 6.30 to 7.00 | Cc1ccc(CNC(=O)c2cn(CCCCc3cc4c(-c5ccc(OC(F)(F)F)cc5)c(C5CC5)[nH]c4nn3)nn2)cn1 [Example 165, 1-(4-{6-cyclopropyl-5-[4-(trifluoromethoxy)phenyl]-7H-pyrrolo[2,3-c]pyridazin-3-yl}butyl)-N-[(6-methylpyridin-3-yl)methyl]-1H-1,2,3-triazole-4-carboxamide] |
| > 7.00 | 6.30 to 7.00 | CC(C)(O)c1ccc(CNC(=O)c2cn(CCCCc3cc4c(-c5cccc(C(F)(F)F)c5)c(C5CC5)[nH]c4nn3)nn2)cn1 [Example 166, 1-(4-{6-cyclopropyl-5-[3-(trifluoromethyl)phenyl]-7H-pyrrolo[2,3-c]pyridazin-3-yl}butyl)-N-{[6-(2-hydroxypropan-2-yl)pyridin-3-yl]methyl}-1H-1,2,3-triazole-4-carboxamide] |
| > 7.00 | 6.30 to 7.00 | Cc1ccc(CNC(=O)c2cn(CCCCc3cc4c(-c5cccc(C(F)(F)F)c5)c(C5CC5)[nH]c4nn3)nn2)cn1 [Example 167, 1-(4-{6-cyclopropyl-5-[3-(trifluoromethyl)phenyl]-7H-pyrrolo[2,3-c]pyridazin-3-yl}butyl)-N-[(6-methylpyridin-3-yl)methyl]-1H-1,2,3-triazole-4-carboxamide] |

Source: patent US20160002248A1, “GLS1 INHIBITORS FOR TREATING DISEASE” (Board of Regents, The University of Texas System, priority 2014, published 2016)
